Data from patent US20110118120A1, “SYNERGISTIC HERBICIDAL COMPOSITION CONTAINING AMINOPYRALID AND SULFONYLUREAS” (Dow AgroSciences LLC, priority 2009, published 2011).

Tested on: milk thistle (Sonchus oleraceus; SONOL)
Assay: Postemergence herbicidal activity of mixtures under field conditions (percent visual weed control)
Format: in vivo
Settings: postemergence foliar, spring wheat
Method: These trials were conducted under field conditions in Northern New South Wales, Australia. Trials sites were located in commercially grown fields of spring wheat (Triticum aestivum). The wheat crop was grown using normal cultural practices for fertilization, seeding, and maintenance to ensure good growth of the crop and the weeds. The trial was conducted using normal research methodology. Trial plots were marked out measuring 3 meters (m) by 10 m. All treatments were applied using a randomized complete block trial design with 4 replications per treatment. The trial sites had naturally occurring populations of weeds present. The weed spectrum included, but was not limited to, milk thistle (Sonchus oleraceus; SONOL); wire-weed (Polygonum aviculare; POLAV); turnip weed (Rapistrum rugosum; RASRU); Medick, Medicago spp. (MEDSS); Patersons curse (Echium plantagineum; EPHIL). The weeds were treated with postemergence foliar applications when they were between cotyledons and 8 true leaves.
Treatments consisted of tank mixes of soluble granules of aminopyralid potassium salt and commercially available formulations of metsulfuron-methyl (Ally™ herbicide, water dispersible granules) and MCPA iso-octyl (emulsifiable concentrate). The ‘carrier’ application volume was using 100 liters per hectare (L/ha) of water. […]

Row | Compound | % Control SONOL Ob (percent control observed) (Metsulfuron 3 g ai/ha alone) [%] | % Control SONOL Ob (percent control observed) (Aminopyralid 3.75 g ae/ha alone) [%]
1 | COC(=O)c1ccccc1S(=O)(=O)NC(=O)Nc1nc(C)nc(OC)n1 [Metsulfuron, metsulfuron-methyl] | 29 | –
2 | Nc1cc(Cl)nc(C(=O)O)c1Cl [Aminopyralid, aminopyralid] | – | 18
